According to PubChem BioAssay AID248 (DTP/NCI, 2004):
“And” between values parts separate entries of the source, which are not always exact repeats. Identical values can stand only once. Toxic doses and inconclusive results are not listed. Rule as the data show it: active = T/C of 150% or more; inactive = T/C below 125%.

System: L1210 leukemia ip in BDF1 mice, survival T/C
Assay: NCI In Vivo Anticancer Drug Screen. Data for tumor model L1210 Leukemia (intraperitoneal) in B6D2F1 (BDF1) mice
Details: endpoint: mean survival time, higher = longer survival
Method in brief: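 Mice bearing the transplanted tumor received compound or vehicle. Survival of the treated group was divided by that of the vehicle-treated control group to give the ratio.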

[1] = dose: 100.0 mg/kg/injection, schedule: Q01DX001 (ip), vehicle: saline
[2] = dose: 200.0 mg/kg/injection, schedule: Q01DX001 (ip), vehicle: saline
[3] = dose: 400.0 mg/kg/injection, schedule: Q01DX001 (ip), vehicle: saline
[4] = dose: 100.0 mg/kg/injection, schedule: Q01DX009 (ip), vehicle: Klucel (hydroxypropylcellulose) (HPC)
[5] = dose: 200.0 mg/kg/injection, schedule: Q01DX009 (ip), vehicle: Klucel (hydroxypropylcellulose) (HPC)
[6] = dose: 400.0 mg/kg/injection, schedule: Q01DX009 (ip), vehicle: Klucel (hydroxypropylcellulose) (HPC)
[7] = dose: 100.0 mg/kg/injection, schedule: Q04DX003 (ip), vehicle: saline with Tween-80
[8] = dose: 200.0 mg/kg/injection, schedule: Q04DX003 (ip), vehicle: saline with Tween-80
[9] = dose: 75.0 mg/kg/injection, schedule: Q01DX009 (ip), vehicle: saline
[10] = dose: 100.0 mg/kg/injection, schedule: Q01DX009 (ip), vehicle: saline with Tween-80
[11] = dose: 100.0 mg/kg/injection, schedule: Q01DX009 (ip), vehicle: saline
[12] = dose: 100.0 mg/kg/injection, schedule: Q04DX003 (ip), vehicle: saline
[13] = dose: 200.0 mg/kg/injection, schedule: Q01DX009 (ip), vehicle: saline
[14] = dose: 200.0 mg/kg/injection, schedule: Q04DX003 (ip), vehicle: saline
[15] = dose: 400.0 mg/kg/injection, schedule: Q01DX009 (ip), vehicle: saline
[16] = dose: 400.0 mg/kg/injection, schedule: Q04DX003 (ip), vehicle: saline
[17] = dose: 400.0 mg/kg/injection, schedule: Q04DX003 (ip), vehicle: saline with Tween-80
[18] = dose: 50.0 mg/kg/injection, schedule: Q01DX009 (ip), vehicle: Klucel (hydroxypropylcellulose) (HPC)
[19] = dose: 75.0 mg/kg/injection, schedule: Q01DX001 (ip), vehicle: saline
[20] = dose: 150.0 mg/kg/injection, schedule: Q01DX001 (ip), vehicle: saline
[21] = dose: 50.0 mg/kg/injection, schedule: Q01DX009 (ip), vehicle: saline

Measured: T/C

CC(=O)n1ncc2ccc(N)cc21
inactive: dose: 25.0 mg/kg/injection, schedule: Q01DX009 (ip), vehicle: water 89 % of control | dose: 50.0 mg/kg/injection, schedule: Q01DX009 (ip), vehicle: water 101 % of control | dose: 100.0 mg/kg/injection, schedule: Q01DX009 (ip), vehicle: water 96 % of control | dose: 100.0 mg/kg/injection, schedule: Q04DX003 (ip), vehicle: water 100 % of control | dose: 200.0 mg/kg/injection, schedule: Q04DX003 (ip), vehicle: water 96 % of control

CC(=O)C1(C)C(=O)N(c2ccc(C)cc2)C(=O)N1c1ccc(C)cc1 (stereo not drawn)
inactive: [1] 104 % of control | [2] 102 % of control | [3] 102 % of control

COC(=O)C(Br)C(OC)c1ccccc1 (stereo not drawn)
inactive: [4] 96 % of control | [5] 96 % of control | [6] 98 % of control

O=[N+]([O-])c1ccc(/C=N\Nc2ccccn2)s1
inactive: [7] 93 % of control | [8] 93 % of control

CCC(C)Nc1ccc([N+](=O)[O-])cc1 (stereo not drawn)
inactive: dose: 75.0 mg/kg/injection, schedule: Q01DX009 (ip), vehicle: other 95 % of control | dose: 150.0 mg/kg/injection, schedule: Q01DX009 (ip), vehicle: other 102 % of control | dose: 300.0 mg/kg/injection, schedule: Q01DX009 (ip), vehicle: other 113 % of control

CC(N)C12CC3CC(CC(C3)C1)C2 (stereo not drawn)
inactive: [9] 94 % of control

O=C(Cl)c1ccccc1Sc1ccccc1
inactive: dose: 25.0 mg/kg/injection, schedule: Q01DX009 (ip), vehicle: saline with Tween-80 106 % of control | dose: 50.0 mg/kg/injection, schedule: Q01DX009 (ip), vehicle: saline with Tween-80 97 % of control | [10] 92 % of control

O=[N+]([O-])c1ccc(-c2ncc3cnccn23)cc1
inactive: [11] 90 % of control | [12] 100 % of control | [13] 90 % of control | [14] 93 % of control | [15] 91 % of control | [16] 95 % of control

COc1cc(NC(=O)CC(C)=O)c(OC)cc1Cl
inactive: [7] 100 % of control | [8] 102 % of control | [17] 102 % of control

ClC12C3CCCC1CCCC2CCC3 (stereo not drawn)
inactive: dose: 100.0 mg/kg/injection, schedule: Q04DX003 (ip), vehicle: other 117 % of control | dose: 200.0 mg/kg/injection, schedule: Q04DX003 (ip), vehicle: other 104 % of control | dose: 400.0 mg/kg/injection, schedule: Q04DX003 (ip), vehicle: other 104 % of control

Clc1ccc(/C=N/Nc2nc3ccccc3s2)cc1
inactive: dose: 222.0 mg/kg/injection, schedule: Q01DX Z (ip), vehicle: methylcellulose (MC) 97 % of control | dose: 333.0 mg/kg/injection, schedule: Q01DX Z (ip), vehicle: methylcellulose (MC) 101 % of control | dose: 500.0 mg/kg/injection, schedule: Q01DX Z (ip), vehicle: methylcellulose (MC) 91 % of control

O=C1/C(=C/c2ccccc2[N+](=O)[O-])Cc2ccccc21
inactive: [18] 107 % of control | [4] 94 % of control | [5] 93 % of control

Cc1ccc(SCC#CCOc2ccc(Cl)cc2)cc1
inactive: [19] 93 % of control | [9] 99 % of control | [20] 95 % of control | dose: 150.0 mg/kg/injection, schedule: Q01DX009 (ip), vehicle: saline 99 % of control | dose: 300.0 mg/kg/injection, schedule: Q01DX001 (ip), vehicle: saline 93 % of control | dose: 300.0 mg/kg/injection, schedule: Q01DX009 (ip), vehicle: saline 96 % of control

Cc1ccc(Cl)nn1
inactive: [1] 108 % of control | [2] 109 % of control

COc1cc(Cl)ccc1NC(=O)OCc1ccco1
inactive: [11] 111 % of control | [13] 111 % of control | [15] 100 % of control

[I][Hg][I].c1ccc(P(N2CCCCC2)N2CCCCC2)cc1
inactive: [4] 102 % of control | [5] 97 % of control | [6] 97 % of control

COc1ccccc1-c1ccc([N+](=O)[O-])cc1[N+](=O)[O-]
inactive: dose: 100.0 mg/kg/injection, schedule: Q01DX001 (ip), vehicle: carboxymethylcellulose (CMC) 100 % of control | dose: 200.0 mg/kg/injection, schedule: Q01DX001 (ip), vehicle: carboxymethylcellulose (CMC) 105 % of control | dose: 400.0 mg/kg/injection, schedule: Q01DX001 (ip), vehicle: carboxymethylcellulose (CMC) 102 % of control

CC(O)C(=O)N(O)c1ccccc1OCc1ccccc1 (stereo not drawn)
inactive: dose: 75.0 mg/kg/injection, schedule: Q01DX001 (ip), vehicle: acetone 104 % of control | dose: 75.0 mg/kg/injection, schedule: Q04DX003 (ip), vehicle: acetone 102 % of control | dose: 150.0 mg/kg/injection, schedule: Q01DX001 (ip), vehicle: acetone 91 % of control | dose: 150.0 mg/kg/injection, schedule: Q04DX003 (ip), vehicle: acetone 98 % of control | dose: 300.0 mg/kg/injection, schedule: Q01DX001 (ip), vehicle: acetone 89 % of control | dose: 300.0 mg/kg/injection, schedule: Q04DX003 (ip), vehicle: acetone 96 % of control

COc1ccc(OC(=O)Nc2cc([N+](=O)[O-])ccc2F)cc1
inactive: [4] 106 % of control | [5] 93 % of control | [6] 93 % of control

O=C(Nc1ccccc1)c1ccc(N(CO)CO)cc1
inactive: [1] 98 % of control | [12] 94 % of control | [2] 101 % of control | [14] 120 % of control | [3] 93 % of control | [16] 96 % of control

C/C(=N/N(C)C)c1ccc(F)cc1
inactive: dose: 6.25 mg/kg/injection, schedule: Q01DX009 (ip), vehicle: saline 94 % of control | dose: 12.5 mg/kg/injection, schedule: Q01DX009 (ip), vehicle: saline 98 % of control | dose: 25.0 mg/kg/injection, schedule: Q01DX009 (ip), vehicle: saline 106 % of control | [21] 101 % of control | [11] 94 % of control

CC(=O)OC1CC2C(CCC3(C)C(C(C)=O)CCC23)C2(C)CCC(O)C=C12 (stereo not drawn)
inactive: dose: 75.0 mg/kg/injection, schedule: Q01DX001 (ip), vehicle: other 101 % of control | dose: 150.0 mg/kg/injection, schedule: Q01DX001 (ip), vehicle: other 98 % of control | dose: 300.0 mg/kg/injection, schedule: Q01DX001 (ip), vehicle: other 103 % of control

Clc1ccc(P(c2ccc(Cl)cc2)c2ccc(Cl)cc2)cc1
inactive: [10] 87 % of control | [7] 98 % of control | [8] 95 % of control | [17] 97 % of control

COc1ccc(C(=O)N/N=C/c2c(Cl)cccc2Cl)cc1
inactive: dose: 25.0 mg/kg/injection, schedule: Q01DX009 (ip), vehicle: Klucel (hydroxypropylcellulose) (HPC) 92 % of control | [18] 90 % of control | [4] 93 % of control and 104 % of control

O=C(CI)c1ccc[nH]1
inactive: dose: 50.0 mg/kg/injection, schedule: Q01DX001 (ip), vehicle: saline 100 % of control | [1] 100 % of control | [2] 103 % of control

CCOC1C=CC(O)C(CO)O1 (stereo not drawn)
inactive: [1] 101 % of control | [2] 98 % of control | [3] 95 % of control

CCC(CCl)NC(CC(C)C)CC(C)C (stereo not drawn)
inactive: [19] 93 % of control and 98 % of control | [20] 96 % of control and 107 % of control

Cc1nc2ccc(N=Cc3ccc(N(CCCl)CCCl)cc3C)cc2[nH]1
inactive: dose: 100.0 mg/kg/injection, schedule: Q04DX003 (ip), vehicle: Klucel (hydroxypropylcellulose) (HPC) 104 % of control | dose: 200.0 mg/kg/injection, schedule: Q04DX003 (ip), vehicle: Klucel (hydroxypropylcellulose) (HPC) 102 % of control | dose: 400.0 mg/kg/injection, schedule: Q04DX003 (ip), vehicle: Klucel (hydroxypropylcellulose) (HPC) 101 % of control

O=C(OCCN1CCCCC1)C(c1ccccc1)C1(O)CCCC1 (stereo not drawn)
inactive: [21] 106 % of control | [11] 116 % of control
